{
  "source": "patent US12421522B2",
  "about": "“Modulation of transgene expression in plants” (CORTEVA AGRISCIENCE LLC, priority 2016, dated 2025)",
  "key": {"soybean tissues [1]": {"test_system": "soybean tissues", "experiment": "miRNA expression profiling of miR1512 and miR3522 in soybean tissues", "details": "for relative expression level, 5 mm seed: soybean 5 mm seed; for relative expression level, Hypocotyl: soybean hypocotyl; for relative expression level, Leaf: soybean leaf; for relative expression level, Pod: soybean pod; for relative expression level, Root: soybean root"}, "soybean tissues [2]": {"test_system": "soybean tissues", "experiment": "miRNA expression profiling of miR1512 and miR3522 in soybean tissues", "details": "for relative expression level, 3 mm seed: soybean 3 mm seed; for relative expression level, Cotyledons: soybean cotyledons; for relative expression level, Embryo axis: soybean embryo axis; for relative expression level, Flower: soybean flower; for relative expression level, Pods from 5 mm seeds: soybean pods from 5 mm seeds; for relative expression level, Root tip: soybean root tip; for relative expression level, Seed coat: soybean seed coat; for relative expression level, Stem: soybean stem", "procedure": "Small RNA Library Construction and Sequencing: Small RNA library construction was carried out using Illumina's TruSeq Small RNA sample preparation kit according to the manufacturer's recommendations. Briefly, RNA 3′ and RNA 5′ adapters were sequentially ligated onto 1 μg of high-quality purified Small RNA sample using truncated T4 RNA Ligase 2 and T4 RNA Ligase respectively. The small RNA fragments were then copied into first strand cDNA using SuperScript II reverse transcriptase. The cDNA was converted into double stranded cDNA (ds cDNA) with PCR using two primers that respectively anneal to the ends of 3′ and 5′ adapters. This process selectively enriches those fragments that have adapter molecules on both ends. The amplified cDNA construct is then purified on a 6% PAGE gel, normalized to 2 nM concentration, denatured with sodium hydroxide, and diluted in hybridization buffer for loading onto a Hiseq flow cell. Cluster generation, primer hybridization and sequencing reactions were carried out according to Illumina's recommended protocol.\nGiven the variation in expression among different soybean tissues, miR1512 and miR3522 recognition sites were selected to exemplify tissue-specific transgene expression modulation in a dicot plant.\nTable 1. miRNA microarray expression profiling of miR1512 and miR3522 in soybean tissues. Numbers represent relative expression levels."}},
  "data": [
    {"substance": "miR1512: endogenous soybean micro-RNA, exemplary miR1512 RNA UAACUGAACAUUCUUAGAGCAU (expressed or natural sequence)", "values": [
      {"measurement": "miRNA expression (in words)", "setting": "soybean tissues [1]; leaves and other vegetative tissue", "result": "very low expression"},
      {"measurement": "miRNA expression (in words)", "setting": "soybean tissues [1]; root", "result": "medium expression"},
      {"measurement": "miRNA expression (in words)", "setting": "soybean tissues [1]; seed and seed coat", "result": "high levels"},
      {"measurement": "relative expression level, 5 mm seed", "setting": "soybean tissues [1]", "result": 183},
      {"measurement": "relative expression level, Hypocotyl", "setting": "soybean tissues [1]", "result": 0},
      {"measurement": "relative expression level, Leaf", "setting": "soybean tissues [1]", "result": 0},
      {"measurement": "relative expression level, Pod", "setting": "soybean tissues [1]", "result": 1854},
      {"measurement": "relative expression level, Root", "setting": "soybean tissues [1]", "result": 0},
      {"measurement": "relative expression level, 3 mm seed", "setting": "soybean tissues [2]", "result": 10427},
      {"measurement": "relative expression level, Cotyledons", "setting": "soybean tissues [2]", "result": 70},
      {"measurement": "relative expression level, Embryo axis", "setting": "soybean tissues [2]", "result": 20},
      {"measurement": "relative expression level, Flower", "setting": "soybean tissues [2]", "result": 79},
      {"measurement": "relative expression level, Pods from 5 mm seeds", "setting": "soybean tissues [2]", "result": 23938},
      {"measurement": "relative expression level, Root tip", "setting": "soybean tissues [2]", "result": 3118},
      {"measurement": "relative expression level, Seed coat", "setting": "soybean tissues [2]", "result": 13532},
      {"measurement": "relative expression level, Stem", "setting": "soybean tissues [2]", "result": 15}
    ]},
    {"substance": "miR3522: endogenous soybean micro-RNA, exemplary miR3522 RNA UGAGACCAAAUGAGCAGCUGA (expressed or natural sequence)", "values": [
      {"measurement": "miRNA expression (in words)", "setting": "soybean tissues [1]; all tissues examined except the root tissue", "result": "high or medium levels"},
      {"measurement": "relative expression level, 5 mm seed", "setting": "soybean tissues [1]", "result": 30139},
      {"measurement": "relative expression level, Hypocotyl", "setting": "soybean tissues [1]", "result": 1310},
      {"measurement": "relative expression level, Leaf", "setting": "soybean tissues [1]", "result": 15350},
      {"measurement": "relative expression level, Pod", "setting": "soybean tissues [1]", "result": 405},
      {"measurement": "relative expression level, Root", "setting": "soybean tissues [1]", "result": 399},
      {"measurement": "relative expression level, 3 mm seed", "setting": "soybean tissues [2]", "result": 8958},
      {"measurement": "relative expression level, Cotyledons", "setting": "soybean tissues [2]", "result": 26265},
      {"measurement": "relative expression level, Embryo axis", "setting": "soybean tissues [2]", "result": 3200},
      {"measurement": "relative expression level, Flower", "setting": "soybean tissues [2]", "result": 18509},
      {"measurement": "relative expression level, Pods from 5 mm seeds", "setting": "soybean tissues [2]", "result": 1351},
      {"measurement": "relative expression level, Root tip", "setting": "soybean tissues [2]", "result": 649},
      {"measurement": "relative expression level, Seed coat", "setting": "soybean tissues [2]", "result": 2551},
      {"measurement": "relative expression level, Stem", "setting": "soybean tissues [2]", "result": 3180}
    ]}
  ]
}
